Laboratory results published in patent US11925629B2, “Heterocyclic inhibitors of ERK1 and ERK2 and their use in the treatment of cancer” (Asana Biosciences, LLC, priority 2015, dated 2024).

Tests used:
Type in all cases: cell-based, human
[1] = test system: phosphorylation of RSK1(S380) (the downstream target of ERK1/2); experiment: Phospho-RSK1(S380) ELISA assay in HT-29 cells; details: Homo sapiens, HT-29, HT29 cells, phospho-RSK1(S380); read-out: Mechanistic Cell Assay RSK1 Phos HT29 IC50
Procedure, shortened: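 HT-29 colorectal carcinoma cells (B-RafV600E), plated overnight at 37° C./5% CO2, were treated with compound dilutions for 2 h. Lysates were analysed by phospho-RSK1(Ser380) sandwich ELISA with absorbance at 450 nm. IC50 came from a sigmoidal variable-slope dose-response fit.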

[2] = test system: HCT116 (colorectal carcinoma, K Ras G13D) cells; experiment: Cell proliferation (Alamar Blue) assay, HCT116; details: Homo sapiens, HCT-116, HCT116 cells
Procedure, shortened: (§1)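 5000 cells/well, 16-24 h attach; cpd 0.0005-10 uM (3-fold dilns) x 72 h, 37° C./5% CO2; Alamar Blue 1× 1-3 h; fluor 540/590 nm; IC50, variable-slope sigmoid.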

[3] = test system: HT-29 (colorectal carcinoma, B-RafV600E) cells; experiment: Cell proliferation (Alamar Blue) assay, HT-29; details: Homo sapiens, HT-29, HT29 cells
Procedure, shortened: as §1

Row | Structure (SMILES) | IC50 [1] [µM] | IC50 [2] [µM] | IC50 [3] [µM]
1 | Cc1cnc(Nc2ccc(N3CCNCC3)cc2)nc1-n1ccc(C(=O)NC(CO)c2ccccc2)c1 (stereo not drawn) [Example 73, N-(2-hydroxy-1-phenylethyl)-1-(5-methyl-2-((4-(piperazin-1-yl)-phenyl)amino)pyrimidin-4-yl)-1H-pyrrole-3-carboxamide] | > 2.5 | 0.5 to 2.5 | 0.5 to 2.5
2 | CC[C@@H](CO)Nc1ncc(C)c(-n2ccc(C(=O)NC(CO)c3ccccc3)c2)n1 (stereo partly drawn) [Example 75, N-(2-hydroxy-1-phenylethyl)-1-(2-(((S)-1-hydroxy-butan-2-yl)amino)-5-methyl-pyrimidin-4-yl)-1H-pyrrole-3-carboxamide] | 0.5 to 2.5 | > 2.5 | 0.5 to 2.5
3 | O=C(NC(CO)c1ccccc1)c1ccn(-c2ccnc(Nc3ccc4c(c3)OCO4)c2)c1 (stereo not drawn) [Example 76, 1-(2-(benzo[d][1,3]dioxol-5-ylamino)pyridin-4-yl)-N-(2-hydroxy-1-phenylethyl)-1H-pyrrole-3-carboxamide] | 0.25 to 0.5 | > 2.5 | 0.5 to 2.5
4 | Cc1cnc(Nc2ccc3c(c2)OC(F)(F)O3)cc1-n1ccc(C(=O)NC(CO)c2ccccc2)c1 (stereo not drawn) [Example 80, 1-(2-((2,2-difluorobenzo [d][1,3]dioxol-5-yl)-amino)-5-methyl-pyridin-4-yl)-N-(2-hydroxy-1-phenyl-ethyl)-1H-pyrrole-3-carboxamide] | > 2.5 | > 2.5 | > 2.5
5 | Cc1cnc(Nc2ccc3c(c2)OCO3)nc1-n1ccc(C(=O)N[C@H](CO)c2ccc(F)c(Cl)c2)c1 [Example 87, (S)-1-(2-(benzo[d][1,3]dioxol-5-ylamino)-5-methyl-pyrimidin-4-yl)-N-(1-(3-chloro-4-fluorophenyl)-2-hydroxy-ethyl)-1H-pyrrole-3-carboxamide] | 0.1 to 0.25 | 0.5 to 2.5 | 0.25 to 0.5
6 | Cc1cnc(Nc2ccc(F)cc2Cl)cc1-n1ccc(C(=O)NC(CO)c2cccc(Cl)c2)c1 (stereo not drawn) [Example 91, 1-(2-((2-chloro-4-fluorophenyl)amino)-5-methyl-pyridin-4-yl)-N-(1-(3-chlorophenyl)-2-hydroxy-ethyl)-1H-pyrrole-3-carboxamide] | 0.5 to 2.5 | > 2.5 | 0.5 to 2.5
7 | Cc1cnc(Nc2ccc3c(c2)OC(C)(C)O3)nc1-n1ccc(C(=O)NC(CO)c2ccccc2)c1 (stereo not drawn) [Example 95, 1-(2-((2,2-dimethyl-benzo[d][1,3]dioxol-5-yl)-amino)-5-methyl-pyrimidin-4-yl)-N-(2-hydroxy-1-phenylethyl)-1H-pyrrole-3-carboxamide] | 0.25 to 0.5 | 0.5 to 2.5 | 0.25 to 0.5
8 | Cc1cnc(Nc2ccc3c(c2)OC(C)(C)O3)nc1-n1ccc(C(=O)NC(CO)c2cccc(Cl)c2)c1 (stereo not drawn) [Example 96, N-(1-(3-chloro-phenyl)-2-hydroxy-ethyl)-1-(2-((2,2-dimethyl-benzo[d][1,3]dioxol-5-yl)amino)-5-methyl-pyrimidin-4-yl)-1H-pyrrole-3-carboxamide] | 0.25 to 0.5 | 0.5 to 2.5 | 0.25 to 0.5
9 | CC[C@@H](CO)Nc1cc(-n2ccc(C(=O)NC(CO)c3ccccc3)c2)c(C)cn1 (stereo partly drawn) [Example 100, N-(2-hydroxy-1-phenyl-ethyl)-1-(2-(((S)-1-hydroxy-butan-2-yl)amino)-5-methyl-pyridin-4-yl)-1H-pyrrole-3-carboxamide] | 0.25 to 0.5 | > 2.5 | > 2.5
10 | Cc1cn(-c2nc(Nc3ccc(F)cc3)ncc2C)cc1C(=O)NC(CO)c1cccc(Cl)c1 (stereo not drawn) [Example 107, N-(1-(3-chlorophenyl)-2-hydroxy-ethyl)-1-(2-((4-fluoro-phenyl)amino)-5-methyl-pyrimidin-4-yl)-4-methyl-1H-pyrrole-3-carboxamide] | 0.5 to 2.5 | 0.5 to 2.5 | 0.5 to 2.5
11 | CC[C@@H](CO)Nc1cc(-n2ccc(C(=O)NC(CO)c3cccc(Cl)c3)c2)ccn1 (stereo partly drawn) [Example 109, N-(1-(3-chloro-phenyl)-2-hydroxy-ethyl)-1-(2-(((S)-1-hydroxy-butan-2-yl)amino)pyridin-4-yl)-1H-pyrrole-3-carboxamide] | 0.25 to 0.5 | > 2.5 | > 2.5
12 | Cc1cn(-c2ccnc(Nc3ccc(F)cc3)n2)cc1C(=O)NC(CO)c1cccc(Cl)c1 (stereo not drawn) [Example 110, N-(1-(3-chloro-phenyl)-2-hydroxy-ethyl)-1-(2-((4-fluoro-phenyl)-amino)pyrimidin-4-yl)-4-methyl-1H-pyrrole-3-carboxamide] | > 2.5 | > 2.5 | > 2.5
13 | Cc1cnc(Nc2ccc(F)cc2)nc1-n1ccc(C(=O)NC(CO)c2cccc(Cl)c2)c1 (stereo not drawn) [Example 113, N-(1-(3-chloro-phenyl)-2-hydroxy-ethyl)-1-(2-((4-fluoro-phenyl)amino)-5-methyl-pyrimidin-4-yl)-1H-pyrrole-3-carboxamide] | 0.1 to 0.25 | 0.1 to 0.25 | 0.1 to 0.25
14 | Cc1cnc(Nc2ccc(F)cc2)nc1-n1ccc(C(=O)NC(CO)c2ccccc2)c1 (stereo not drawn) [Example 114, 1-(2-((4-fluoro-phenyl)amino)-5-methyl-pyrimidin-4-yl)-N-(2-hydroxy-1-phenylethyl)-1H-pyrrole-3-carboxamide] | 0.1 to 0.25 | 0.25 to 0.5 | 0.5 to 2.5
15 | Cc1cnc(NC2CC2)nc1-n1ccc(C(=O)NC(CO)c2cccc(Cl)c2)c1 (stereo not drawn) [Example 115, N-(1-(3-chloro-phenyl)-2-hydroxy-ethyl)-1-(2-(cyclopropyl-amino)-5-methyl-pyrimidin-4-yl)-1H-pyrrole-3-carboxamide] | 0.25 to 0.5 | > 2.5 | > 2.5
16 | O=C(N[C@H](CO)c1cccc(Cl)c1)c1cn(-c2ccnc(NC3CC3)c2)cn1 [Example 116, (S)-N-(1-(3-chlorophenyl)-2-hydroxy-ethyl)-1-(2-(cyclopropyl-amino)pyridin-4-yl)-1H-imidazole-4-carboxamide] | 0.5 to 2.5 | > 2.5 | > 2.5
17 | Cc1cnc(NC(C)c2ccccc2)nc1-n1ccc(C(=O)NC(CO)c2ccccc2)c1 (stereo not drawn) [Example 117, N-(2-hydroxy-1-phenyl-ethyl)-1-(5-methyl-2-((1-phenylethyl)amino)pyrimidin-4-yl)-1H-pyrrole-3-carboxamide] | 0.5 to 2.5 | > 2.5 | > 2.5
18 | Cc1cnc(Nc2ccc(F)cc2)nc1-n1cnc(C(=O)NC(CO)c2ccccc2)c1 (stereo not drawn) [Example 118, 1-(2-((4-fluoro-phenyl)amino)-5-methyl-pyrimidin-4-yl)-N-(2-hydroxy-1-phenylethyl)-1H-imidazole-4-carboxamide] | 0.25 to 0.5 | 0.5 to 2.5 | 0.1 to 0.25
19 | COc1cc(Nc2ncc(C)c(-n3ccc(C(=O)NC(CO)c4ccccc4)c3)n2)cc(OC)c1OC (stereo not drawn) [Example 121, N-(2-hydroxy-1-phenylethyl)-1-(5-methyl-2-((3,4,5-trimethoxy-phenyl)amino)pyrimidin-4-yl)-1H-pyrrole-3-carboxamide] | 0.25 to 0.5 | 0.25 to 0.5 | 0.25 to 0.5
20 | Cc1cnc(NC2CCOC2)nc1-n1ccc(C(=O)NC(CO)c2cccc(Cl)c2)c1 (stereo not drawn) [Example 123, N-(1-(3-chlorophenyl)-2-hydroxy-ethyl)-1-(5-methyl-2-((tetrahydro-furan-3-yl)amino)pyrimidin-4-yl)-1H-pyrrole-3-carboxamide] | 0.1 to 0.25 | 0.5 to 2.5 | 0.25 to 0.5
21 | O=C(NC(CO)c1cccc(Cl)c1)c1ccn(-c2cc(Nc3ccccc3)ncc2Cl)c1 (stereo not drawn) [Example 124, 1-(5-chloro-2-(phenyl-amino)pyridin-4-yl)-N-(1-(3-chlorophenyl)-2-hydroxy-ethyl)-1H-pyrrole-3-carboxamide] | 0.5 to 2.5 | > 2.5 | 0.5 to 2.5
22 | Cc1cnc(Nc2ccc(F)cc2)nc1-n1ccc(C(=O)N[C@H](CO)c2ccc(F)c(Cl)c2)c1 [Example 125, (S)-N-(1-(3-chloro-4-fluorophenyl)-2-hydroxy-ethyl)-1-(2-((4-fluoro-phenyl)-amino)-5-methyl-pyrimidin-4-yl)-1H-pyrrole-3-carboxamide] | 0.1 to 0.25 | 0.25 to 0.5 | 0.25 to 0.5
23 | COc1cc(Nc2ncc(C)c(-n3ccc(C(=O)N[C@H](CO)c4ccc(F)c(Cl)c4)c3)n2)cc(OC)c1OC [Example 126, (S)-N-(1-(3-chloro-4-fluorophenyl)-2-hydroxy-ethyl)-1-(5-methyl-2-((3,4,5-trimethoxy-phenyl)amino)pyrimidin-4-yl)-1H-pyrrole-3-carboxamide] | 0.1 to 0.25 | ≤ 0.1 | 0.1 to 0.25
24 | CCC(COC)Nc1ncc(C)c(-n2ccc(C(=O)NC(CO)c3cccc(Cl)c3)c2)n1 (stereo not drawn) [Example 127, N-(1-(3-chloro-phenyl)-2-hydroxy-ethyl)-1-(2-((1-methoxy-butan-2-yl)amino)-5-methyl-pyrimidin-4-yl)-1H-pyrrole-3-carboxamide] | 0.5 to 2.5 | > 2.5 | > 2.5
25 | Cc1cnc(NC2CCOC2)nc1-n1ccc(C(=O)NC(CO)c2ccccc2)c1 (stereo not drawn) [Example 128, N-(2-hydroxy-1-phenylethyl)-1-(5-methyl-2-((tetrahydro-furan-3-yl)amino)pyrimidin-4-yl)-1H-pyrrole-3-carboxamide] | 0.5 to 2.5 | > 2.5 | 0.5 to 2.5
26 | COc1cnc(Nc2ccc(F)cc2Cl)nc1-n1ccc(C(=O)NC(CO)c2ccccc2)c1 (stereo not drawn) [Example 129, 1-(2-((2-chloro-4-fluorophenyl)amino)-5-methoxy-pyrimidin-4-yl)-N-(2-hydroxy-1-phenylethyl)-1H-pyrrole-3-carboxamide] | 0.5 to 2.5 | > 2.5 | > 2.5
